Reference: patent publication US20200306210A1 (ZOGENIX INTERNATIONAL LIMITED, priority 2017, published 2020)
Counter-ions that a name gives are not always drawn.

System: children and young adults with Dravet syndrome
Test: Study 1: randomized, double-blind, placebo-controlled trial of ZX008, monthly convulsive seizure frequency (MCSF)
Format: in vivo, Human
Details: for Longest seizure free interval, estimate of median treatment difference: Hodges-Lehman estimator; for Greater reduction in mean MCSF compared with placebo: 14-week treatment period; for Near-seizure freedom (0 or a single seizure during 14-week Treatment Period), % of subjects / Near-seizure freedom (0 or a single seizure during 14-week Treatment Period), number of subjects: post-hoc analysis
Description: Human patients, age 2 to 18 years, inclusive, having a documented medical history to support a clinical diagnosis of Dravet syndrome and a history of seizures (either generalized tonic-clonic or unilateral clonic or bilateral clonic, and prolonged) were recruited, and selected for inclusion in the study according to criteria comprising a combination of age, physical and psychological characteristics, and (optionally) resistance to treatment with conventional therapies. Included subjects were assessed over the course of this 22-week study. The study protocols were reviewed and approved by the institutional review board or ethics committee for each study site before any study activation at the site. All patients or their legal representatives signed informed consent/assent prior to enrolling in the trial.
Subjects had ≥4 convulsive seizures (tonic, tonic atonic, tonic-clonic, clonic) per 4-week period for past 12 weeks prior to screening, by parent/guardian report to investigator or investigator medical notes.
Potential subjects enrolled in a 6-week baseline to establish seizure frequency and determine eligibility. Seizures were documented by parents or caregivers in an electronic study diary as to date, time of day, duration, and seizure type. To qualify for randomization each subject must have had ≥6 convulsive seizures during the baseline period with ≥2 in the first 3 weeks and ≥2 in the last 3 weeks. For this study convulsive seizures were defined as hemiclonic, tonic, clonic, tonic-atonic, generalized tonic-clonic, and focal with clear observable motor signs. The six-week Baseline Period started with a screening visit followed by an observation period where subjects were assessed for baseline seizure activity based on recordings of daily seizure activity entered into the diary.
Randomization was double-blind and stratified by age group (<6 years, ≥6 years) across treatment groups. A placebo solution, identical in appearance and taste, was also provided. Daily doses were administered with food in 2 equal doses, one in the morning and one in the evening approximately 12 hours apart. […] The other groups underwent dummy titrations to maintain the blind. Patients were maintained on their final dose for an additional 12 weeks (the Maintenance Period). At the conclusion of the Treatment Period (Titration plus Maintenance), eligible patients electing to continue in an optional open-label extension (OLE) study underwent a 2-week transition period, whereas patients exiting the study underwent a 2-week taper and follow-up.
ZX008 was supplied as an oral solution in concentrations of 1.25, 2.5, and 5 mg/mL. Subjects will be randomized to receive 1 of 2 doses of ZX008 (0.2 mg/kg/day, 0.8 mg/kg/day; up to 30 mg/day) or placebo. Study medication will be administered twice a day (BID) in equally divided doses with food. To the placebo group, as a negative control, an oral solution not containing fenfluramine was administered.
Monthly convulsive seizure frequency (MCSF) was expressed per 28 days. The primary end point was the change in mean MCSF) between the baseline period and the combined titration and maintenance periods in subjects treated with ZX008 0.8 mg/kg/day compared with the group treated with placebo. Five key secondary end points were pre-specified: the comparison of the ZX008 0.2 mg/kg/day group with placebo for the change in MCSF between baseline and the combined titration and maintenance periods, comparison of both ZX008 groups independently with placebo on the proportion of subjects who achieved a ≥50% reduction from baseline in MCSF and the comparison of both ZX008 groups with placebo on the longest seizure-free interval observed in each group. A serial gatekeeping procedure was used to maintain the simultaneous type 1 error rate at α=0.05 across the analyses of the primary and 5 key secondary end points. […]

SMILES: CCNC(C)Cc1cccc(C(F)(F)F)c1 (stereo not shown) [ZX008, fenfluramine hydrochloride]
- Longest seizure free interval, estimate of median treatment difference (0.2 mg/kg/day vs placebo): -5.0 days
- Greater reduction in mean MCSF compared with placebo (0.2 mg/kg/day): 33.7%
- Reduction from baseline in mean MCSF (0.2 mg/kg/day, after 6 weeks of treatment): −26.3%
- Reduction from baseline in mean MCSF (0.2 mg/kg/day, after 10 weeks of treatment): −22.4%
- Reduction from baseline in mean MCSF (0.2 mg/kg/day, after 14 weeks of treatment): −22.2%
- 100% reduction (seizure freedom during entire 14-week treatment period), n of subjects (0.2 mg/kg/day, n = 39): 3
- Longest seizure free interval, median (0.2 mg/kg/day, n = 39): 14 days
- Percent change in convulsive seizure frequency per 28 days, LS means ± SE (0.2 mg/kg/day, n = 39): −22.50 ± 9.28%
- Percent change in convulsive seizure frequency per 28 days, median (0.2 mg/kg/day, n = 39): −37.6%
- Responder analysis ≥25% reduction in MCSF, % of subjects (0.2 mg/kg/day, n = 39): (61.5%)
- Responder analysis ≥25% reduction in MCSF, OR vs placebo (0.2 mg/kg/day, n = 39): 3.80
- Responder analysis ≥25% reduction in MCSF, n of subjects (0.2 mg/kg/day, n = 39): 24
- Responder analysis ≥50% reduction in MCSF, % of subjects (0.2 mg/kg/day, n = 39): (41.0%)
- Responder analysis ≥50% reduction in MCSF, OR vs placebo (0.2 mg/kg/day, n = 39): 10.10
- Responder analysis ≥50% reduction in MCSF, n of subjects (0.2 mg/kg/day, n = 39): 16
- Responder analysis ≥75% reduction in MCSF, % of subjects (0.2 mg/kg/day, n = 39): (20.5%)
- Responder analysis ≥75% reduction in MCSF, OR vs placebo (0.2 mg/kg/day, n = 39): 10.46
- Responder analysis ≥75% reduction in MCSF, n of subjects (0.2 mg/kg/day, n = 39): 8
- Change in convulsive seizure frequency per 28 days, % Difference from placebo, LS mean (key secondary endpoint) (0.2 mg/kg/day, n = 39, baseline vs titration + maintenance): −33.74%
- Near-seizure freedom (0 or a single seizure during 14-week Treatment Period), % of subjects (0.2 mg/kg/day): 12.8%
- Near-seizure freedom (0 or a single seizure during 14-week Treatment Period), number of subjects (0.2 mg/kg/day): 5
- Longest seizure free interval, estimate of median treatment difference (0.8 mg/kg/day vs placebo): -11.5 days
- Greater reduction in mean MCSF compared with placebo (0.8 mg/kg/day): 63.9%
- Reduction from baseline in mean MCSF (0.8 mg/kg/day, after 6 weeks of treatment): −62.4%
- Reduction from baseline in mean MCSF (0.8 mg/kg/day, after 10 weeks of treatment): −61.8%
- Reduction from baseline in mean MCSF (0.8 mg/kg/day, after 14 weeks of treatment): −62.2%
- 100% reduction (seizure freedom during entire 14-week treatment period), n of subjects (0.8 mg/kg/day, n = 40): 3
- Longest seizure free interval, median (0.8 mg/kg/day, n = 40): 20.5 days
- Percent change in convulsive seizure frequency per 28 days, median (0.8 mg/kg/day, n = 40): −72.4%
- Responder analysis ≥25% reduction in MCSF, % of subjects (0.8 mg/kg/day, n = 40): (92.5%)
- Responder analysis ≥25% reduction in MCSF, OR vs placebo (0.8 mg/kg/day, n = 40): 42.91
- Responder analysis ≥25% reduction in MCSF, n of subjects (0.8 mg/kg/day, n = 40): 37
- Responder analysis ≥50% reduction in MCSF, % of subjects (0.8 mg/kg/day, n = 40): (70.0%)
- Responder analysis ≥50% reduction in MCSF, OR vs placebo (0.8 mg/kg/day, n = 40): 29.10
- Responder analysis ≥50% reduction in MCSF, n of subjects (0.8 mg/kg/day, n = 40): 28
- Responder analysis ≥75% reduction in MCSF, OR vs placebo (0.8 mg/kg/day, n = 40): 49.49
- Responder analysis ≥75% reduction in MCSF, n of subjects (0.8 mg/kg/day, n = 40): 18
- Change in convulsive seizure frequency per 28 days, % Difference from placebo, LS mean (primary endpoint) (0.8 mg/kg/day, n = 40, baseline vs titration + maintenance): −63.89%
- Near-seizure freedom (0 or a single seizure during 14-week Treatment Period), % of subjects (0.8 mg/kg/day): 25%
- Near-seizure freedom (0 or a single seizure during 14-week Treatment Period), number of subjects (0.8 mg/kg/day): 10
